Experimental data taken from US20200138764A1, “METHODS AND DEVICES FOR ACTIVATING ADIPOSE TISSUE” (The Procter & Gamble Company, priority 2018, published 2020).

What was measured:
[1] = target: human TRPM8; test: TRPM8 Protocol-FLIPR Assay (intracellular Ca2+); type: cell-based; settings: HEK-293 cells stably transfected with human TRPM8, Fluo-4 AM, relative to benchmark agonist WS-5
Protocol: To determine whether TRPM8 is activated, the intracellular calcium ion (Ca^2+) level was measured from transfected cells with the TRPM8 receptor sequence (SEQ ID NO: 1). HEK-293 (human embryonic kidney) cells stably transfected with human TRPM8 were grown in 15 mL growth medium (high glucose DMEM (Dulbecco's Modification of Eagle's Medium) supplemented with 10% FBS (fetal bovine serum), 100 μg/mL penicillin/streptomycin, 5 μg/mL blasticindin, and 100 μg/mL zeocin) in a 75 cm^2 flask for 3 days at 37° C. in a mammalian cell culture incubator (Forma Scientific Model 3110, Marietta, Ohio) set at 5% CO2. Cells were detached with addition of 2 mL of trypsin-EDTA buffer (GIBCO® 25200, Invitrogen, Grand Island, N.Y.) for about 2-3 min. Trypsin was inactivated by addition of 8 mL growth medium. Cells were transferred to a 50 mL tube and centrifuged at 850 rpm for 3 minutes to remove medium. After centrifugation, a pellet of cells was formed in the bottom of the tube separating them from the supernatant solution. The supernatant was discarded and the cell pellet was suspended in 1 mL of fresh growth medium to which 5 μL (12.5 μg) of Fluo-4 AM (Molecular Probes, Inc., Eugene, Oreg.) calcium indicator was added and incubated for 30 min with gentle shaking. Fluo-4 AM is a fluorescent dye used for quantifying cellular Ca^2+ concentrations in the 100 nM to 1 μM range. At the end of 30 minutes, 45 mL of assay buffer (1×HBSS (Hank's Balanced Salt Solution), 20 mM HEPES (4-(2-Hydroxyethyl)-1-piperazineethanesulfonic acid)) was added to wash cells and the resulting mixture was then centrifuged at 850 rpm for 3 minutes at 20° C. to remove excess buffer and Fluo-4 AM calcium indicator.
The pelleted cells were re-suspended in 10 mL assay buffer and 90 μL aliquots (˜50,000 cells) per well delivered to a 96-well assay plate containing 10 μL of test compounds (1 mM in assay buffer, final concentration 100 μM) or buffer control and incubated at room temperature for 30 minutes. After 30 minutes, a plate (Falcon 353219, Corning Corning N.Y.) was placed into a fluorometric imaging plate reader (FLIPR384 from Molecular Devices, Sunnyvale, Calif.) and basal fluorescence recorded (excitation wave length 488 nm and emission wave length 510 nm). Then 20 μL of 100 mM of TRPM8 agonist WS5 coolant in the assay buffer was added and fluorescence recorded. For determining the direct effect of test compounds on TRPM8, fluorescence was measured immediately after addition of each compound (TABLE 1). Additional discussion of the FLIPR method can be found in Smart et al., Characterization using FLIPR of human vanilloid VR1 receptor pharmacology, European Journal of Pharmacology 417, 51-58 (2001) and Liu et al., Development and validation of a platelet calcium flux assay using a fluorescent imaging plate reader, Analytical Biochemistry 357, 216-224 (2006).
The magnitude of the fluorescence of the active-treated cells was compared to the magnitude of the fluorescence from a benchmark agonist (WS-5), as described above. The percentage of fluorescence as a function of active dose was plotted and a sigmoidal curve was generated. Curve fitting from this dose-response curve yielded the value for TRPM8 IC50 in nM.
TRPM8 activation was determined by measuring intracellular calcium ion (Ca^2+) level from transfected cells with the TRPM8 receptor gene, as described in EXAMPLE 1, the results of which are shown in TABLE 1. IC50 values are provided in column 3 of TABLE 1, which measured the concentration of activating compound needed to reduce intracellular [Ca^2+] by 50%. […]

[2] = tested on: adipocytes; test: Real Time PCR analysis of adipocytes, in vitro; type: cell-based, human; settings: Real Time PCR, relative to untreated control = 1
Protocol: For Real Time PCR analysis of adipocytes, cells from cultures grown in 24 well plates were collected. RNA was isolated using RNeasy Kit (Cat 74104, Qiagen, Germantown, Md.) using manufacturer's protocol. RNA was quantitated using the Nanodrop 1000 (Thermofisher, Waltham, Mass.). cDNA formation was carried out using PowerUp SYBR™ Green Master Mix and real time PCR carried out on QuantStudio 6 machine (ThermoFisher, Waltham, Mass.) per manufacturer protocol. ΔΔCT analysis was done using the Expression Suite software (ThermoFisher) purchased with the instrument.
TABLE 2 used Real Time PCR to determine which proteins were expressed in adipocytes upon treatment with activating compounds. […] Real Time PCR values were relative to a control sample that was not treated with any activating compounds. […] In WS-5 and Menthol, no Real Time PCR value was over 2.0, which indicated only slight changes in mRNA expression.

| SMILES | IC50 [1] [µM] | Relative Expression of mRNA in Adipocytes: 18S [2] | Relative Expression of mRNA in Adipocytes: ACADM [2] | Relative Expression of mRNA in Adipocytes: CPT1A [2] | Relative Expression of mRNA in Adipocytes: FASN [2] | Relative Expression of mRNA in Adipocytes: GAPDH [2] | Relative Expression of mRNA in Adipocytes: PPARGC1A [2] | Relative Expression of mRNA in Adipocytes: PRDM16 [2] | Relative Expression of mRNA in Adipocytes: UCP-1 [2] |
| --- | --- | --- | --- | --- | --- | --- | --- | --- | --- |
| CC1CCC(C(C)C)C(O)C1 (centres unmarked) [Menthol] | 7 | 1 | 1.45 | 1.35 | 1.45 | 1 | 2.0 | 0.75 | 1.7 |
| CC(C)[C@@H]1CC[C@@H](C)C[C@H]1C(=O)NC[C@@H](NC(=O)[C@H](C)N)c1ccccc1 [Formula III] | 0.002 | 1 | 1.75 | 1.7 | 1.85 | 1 | 0.8 | 0.6 |  |
| CCOC(=O)CNC(=O)[C@@H]1C[C@H](C)CC[C@H]1C(C)C [WS-5] | 2 | 0.85 | 1.45 | 1.5 | 2.0 | 1 | 1.7 | 1.3 | 1.5 |
